Measured values as given in patent US8969366B2, “Substituted pyrimidinylpyrrolopyridinone derivatives, process for their preparation and their use as kinase inhibitors” (Nerviano Medical Sciences S.R.L., priority 2009, dated 2015).
Counter-ions that a name gives are not always drawn.

How the values were obtained:
Type in all cases: cell-based
[1] = tested on: human melanoma cells Mewo (with wild-type B-Raf); assay: In vitro cell proliferation assay, Mewo; details: 72 hours treatment, cell number by ATP monitoring system
Procedure: (§1) In Vitro Cell Proliferation Assay Exponentially growing human melanoma cells A375 (with a mutated B-RAF) and human melanoma cells Mewo (with wild-type B-Raf) were seeded and incubated at 37° C. in a humidified 5% CO2 atmosphere. After 24 hours, scalar doses of the compound were added to the medium and cells oncubated for 72 hours. At the end of treatment, cells were washed and counted. Cell number was determined by a cellular adenosine triphosphate monitoring system. Cell proliferation was compared to control cells and the concentration inhibiting cell growth by 50% was calculated. p-MAPK (T202/Y204) ArrayScan Assay

[2] = tested on: p-MAPK (T202/Y204) in A375 human melanoma cells, having a mutated B-RAF; assay: p-MAPK (T202/Y204) ArrayScan assay; details: A-375, A375 cells treated 1.5 or 2 hours, cytoplasmatic p-MAPK fluorescence intensity, read-out: Array Scan A375 IC50
Procedure: A375 human melanoma cells, having a mutated B-RAF, are seeded in 384-well poly-lysine coated plates (Matrix) at a density of 1000 cells/well with appropriate medium supplemented with 10% FCS and incubated for 16-24 hours. Cells are treated for 1.5 or 2 hours with increasing doses of compounds (starting dose 10 μM, dilution factor 2.5). At the end of the treatment cells are fixed with p-formaldehyde 3.7% for 15-30 min, then washed twice with D-PBS (80 µl/well) and permeabilized with D-PBS containing 0.1% Triton X-100 and 1% BSA (Sigma-Aldrich) for 15 minutes at room temperature (staining solution). Anti-phospho-MAPK (T202/Y204) monoclonal antibody E10 (Cell Signaling, cat. #9106) diluted 1:100 is added in staining solution and incubated for 1 hour at 37° C. After removal of the primary antibody solution, the anti-mouse Cy™2-conjugated (Green) secondary antibody (Amersham) diluted 1:500 in staining solution containing 2 μg/ml DAPI is added. The plate is incubated for 1 hour at 37° C., washed twice and then red with Cellomics' ArrayScan VTI (4 fields/well, CytoNucTrans algorithm).
The parameter “MEAN_RingAvgIntenCh2”, which measures the mean cytoplasmatic fluorescence intensity associated to p-MAPK staining, is reported as the final result.

[3] = tested on: human melanoma cells A375 (with a mutated B-RAF); assay: In vitro cell proliferation assay, A375; details: A-375, 72 hours treatment, cell number by ATP monitoring system
Procedure: as §1

| IC50 [1] [nM] | IC50 [2] [nM] | IC50 [3] [nM] | SMILES |
| --- | --- | --- | --- |
| > 10000 | 5600 | 8220 | Cn1c2c(c(-c3cccc(NC(=O)Nc4ccc(C(F)(F)F)cc4)c3)c1-c1ccnc(N)n1)C(=O)NCC2 [compound 1, 1-{3-[2-(2-Amino-pyrimidin-4-yl)-1-methyl-4-oxo-4,5,6,7-tetrahydro-1H-pyrrolo-[3,2-c]pyridin-3-yl]-phenyl}-3-(4-trifluoromethyl-phenyl)-urea] |
| 7910 | > 10000 | 6090 | Cn1c(-c2nc(N)ncc2C#Cc2cccc(O)c2)cc2c1CCNC2=O [compound 2, 2-[2-Amino-5-(3-hydroxy-phenylethynyl)-pyrimidin-4-yl]-1-methyl-1,5,6,7-tetrahydro-pyrrolo[3,2-c]pyridin-4-one] |
| 4750 | 710 | 6460 | Nc1ncc(C#Cc2cccc(O)c2)c(-c2cc3c(n2CCF)CCNC3=O)n1 [compound 3, 2-[2-Amino-5-(3-hydroxy-phenylethynyl)-pyrimidin-4-yl]-1-(2-fluoro-ethyl)-1,5,6,7-tetrahydro-pyrrolo[3,2-c]pyridin-4-one] |
| 2450 | 460 | 490 | Cn1c(-c2ccnc(NC(=O)c3cc(Br)cs3)n2)cc2c1CCNC2=O [compound 4, 4-Bromo-thiophene-2-carboxylic acid[4-(1-methyl-4-oxo-4,5,6,7-tetrahydro-1H-pyrrolo[3,2-c]pyridin-2-yl)-pyrimidin-2-yl]-amide] |
| 5790 | 2110 | 1760 | Cn1c(-c2ccnc(NCc3cccc(Cl)c3)n2)cc2c1CCNC2=O [compound 6, 2-[2-(3-Chloro-benzylamino)-pyrimidin-4-yl]-1-methyl-1,5,6,7-tetrahydro-pyrrolo[3,2-c]pyridin-4-one hydrochloride] |
| 9760 | 2140 | 2910 | Cn1c(-c2ccnc(NCc3cc(Br)cs3)n2)cc2c1CCNC2=O [compound 7, 2-{2-[(4-Bromo-thiophen-2-ylmethyl)-amino]-pyrimidin-4-yl}-1-methyl-1,5,6,7-tetrahydro-pyrrolo[3,2-c]pyridin-4-one hydrochloride] |
| 820 | 930 | 210 | Cn1c(-c2ccnc(C#Cc3cccc(Cl)c3)n2)cc2c1CCNC2=O [compound 8, 2-[2-(3-Chloro-phenylethynyl)-pyrimidin-4-yl]-1-methyl-1,5,6,7-tetrahydro-pyrrolo[3,2-c]pyridin-4-one] |
| 1220 | 400 | 370 | Cn1c(-c2ccnc(/C=C/c3cccc(Cl)c3)n2)cc2c1CCNC2=O [compound 9, 2-{2-[(E)-2-(3-Chloro-phenyl)-vinyl]-pyrimidin-4-yl}-1-methyl-1,5,6,7-tetrahydro-pyrrolo[3,2-c]pyridin-4-one] |
| 1980 | 1600 | 450 | Cn1c(-c2ccnc(NC(=O)c3cccc(Cl)c3)n2)cc2c1CCNC2=O [compound 10, 3-Chloro-N-[4-(1-methyl-4-oxo-4,5,6,7-tetrahydro-1H-pyrrolo[3,2-c]pyridin-2-yl)-pyrimidin-2-yl]-benzamide] |
| 2420 | 2910 | 1700 | Cn1c(-c2ccnc(NC(=O)c3cccs3)n2)cc2c1CCNC2=O [compound 11, Thiophene-2-carboxylic acid [4-(1-methyl-4-oxo-4,5,6,7-tetrahydro-1H-pyrrolo[3,2-c]pyridin-2-yl)-pyrimidin-2-yl]-amide] |
| 6410 | 2380 | 2500 | Cn1c(-c2ccnc(NC(=O)c3ccsc3)n2)cc2c1CCNC2=O [compound 12, Thiophene-3-carboxylic acid [4-(1-methyl-4-oxo-4,5,6,7-tetrahydro-1H-pyrrolo-[3,2-c]pyridin-2-yl)-pyrimidin-2-yl]-amide] |
| 2640 | 1450 | 770 | Cc1csc(C(=O)Nc2nccc(-c3cc4c(n3C)CCNC4=O)n2)c1 [compound 14, 4-Methyl-thiophene-2-carboxylic acid [4-(1-methyl-4-oxo-4,5,6,7-tetrahydro-1H-pyrrolo[3,2-c]pyridin-2-yl)-pyrimidin-2-yl]-amide] |
